Calls of active or inactive are those of the source.
Tests used:
[1] = target: Cyclin-dependent kinase 19 (Homo sapiens, UniProt Q9BWU1); test: Navigating the Kinome. Panel member name: CDC2L6; type: functional
[2] = target: Vascular endothelial growth factor receptor 2 (Homo sapiens, UniProt P35968); type: functional
[3] = target: Macrophage colony-stimulating factor 1 receptor (Homo sapiens, UniProt P07333); type: functional;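 note: value comes from the Navigating the Kinome screening panel, CSF1R member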
[4] = target: Dual specificity protein kinase CLK4 (Homo sapiens, UniProt Q9HAZ1); type: functional
[5] = target: Multidrug resistance protein CDR1 (Candida albicans, UniProt P43071); test: Candida albicans Cdr1 pump inhibition curves – singleplex, Cherry Pick2 set, dose response (AID 623996); type: functional; details: read-out: EC50_MICROM
[6] = target: Benomyl/methotrexate resistance protein (Candida albicans, UniProt P28873); test: Candida albicans Mdr1 pump inhibition curves – singleplex, Cherry Pick1 hits, dose response (AID 588608); type: functional
[7] = Vero cell cytotoxicity, cytotoxicity control for M. tuberculosis inhibitor project, purified and synthesized samples, set 3 (AID 504684); type: functional
[8] = Trypanosoma cruzi growth suppression in host cells – NIH3T3 host cells, beta-gal luminescence, confirmation (AID 2044); type: functional, cell-based;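 note: intracellular parasites grown in NIH/3T3 mouse fibroblasts as host cells; luminescent beta-galactosidase reporter signal from transgenic T. cruzi replicating inside host cells; inhibitors lower the luminescence signal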
[9] = A Cell Based Secondary Assay to Explore Cytotoxicity in HepG2 Cells of Compounds that Modulate Mycobacterium tuberculosis in Media Containing Glycerol versus Media without Glycerol (2).; type: functional
[10] = reduction of Shn3 3'UTR-driven luciferase in osteoblasts – cell-based, Clone20 osteoblasts, firefly luciferase, cherry-picked, dose response (AID 624132); type: functional;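 note: firefly luciferase luminescence from reporter carrying the Shn3 3'UTR in osteoblasts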
[11] = Shn3 transcript knock-down in Clone20 cells – cell-based, qPCR, cherry-pick, dose response (AID 743415); type: functional
[12] = target: T1, Sphingosine 1-phosphate receptor 4 (Homo sapiens, UniProt O95977); test: Fluorescence dose response cell-based high throughput screening assay for antagonists of the Sphingosine 1-Phosphate Receptor 4 (S1P4). [Related pubchem assays: 1524 (Confirmation in triplicates.), 1510 (Primary screen.)]; type: functional
T1 sequence (O95977 whole entry): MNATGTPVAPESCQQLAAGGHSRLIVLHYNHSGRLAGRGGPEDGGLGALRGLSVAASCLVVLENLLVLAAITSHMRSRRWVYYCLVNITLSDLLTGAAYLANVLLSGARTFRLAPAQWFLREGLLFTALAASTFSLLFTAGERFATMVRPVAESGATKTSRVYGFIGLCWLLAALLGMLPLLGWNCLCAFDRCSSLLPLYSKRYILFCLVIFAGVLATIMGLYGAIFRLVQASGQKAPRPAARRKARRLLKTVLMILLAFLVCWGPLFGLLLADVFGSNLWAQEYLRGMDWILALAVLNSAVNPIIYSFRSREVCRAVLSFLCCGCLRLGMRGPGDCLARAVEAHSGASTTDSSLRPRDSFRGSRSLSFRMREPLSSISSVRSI

[13] = fluconazole-exposed Candida albicans growth modulators – fluorescence, retest, confirmation (AID 2467); type: functional, cell-based
[14] = Shn3 3'UTR reporter signal decrease – cell-based, Clone20 osteoblasts, firefly luciferase, cherry-pick, set 2, Schnurri-3 inhibitor project, dose response (AID 720490); type: functional;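 note: actives lower the luminescence signal as inhibitors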
[15] = NIH-3T3 fibroblast cytotoxicity, dose response, cytotoxicity control, cell-based, fluorescence, Alamar Blue, secondary assay (AID 2327); type: functional;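 note: NIH-3T3 mouse fibroblasts cultured with fluconazole at 8 µg/mL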
[16] = EF1alpha-driven Renilla reporter with control 3'UTR suppression – Clone20-Shn3RL cells, dual-Glo, cherry-pick, set 2, counter-screen for Shn3 3'UTR targeting project, dose response (AID 720724); type: functional, cell-based; details: Dual-Go Shn3RL
[17] = NIH3T3 cell viability loss – ATP luminescence, mouse fibroblasts, counter-screen, dose response (AID 2010); type: functional, cell-based;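 note: cells exposed to compound for about 90 hours before reading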
[18] = microbe, parasite or virus in culture; type: functional; details: Mycobacterium tuberculosis
[19] = loss of viability in HepG2 cells – cell-based, CellTiter-Glo, cherry-picked, cytotoxicity control for Shn3 inhibitor project, dose response (AID 624134); type: functional
[20] = A Cell Based Secondary Assay to Explore Cytotoxicity in THP-1 Cells of Compounds that Modulate Mycobacterium tuberculosis in Media Containing Glycerol versus Media without Glycerol (2).; type: functional
Paired box protein Pax-8 = Paired box protein Pax-8 (Homo sapiens, UniProt Q06710); test: PAX8 transcriptional activity inhibition in RMG-I – RMG-I cells, luciferase, cherry-pick, dose response (AID 687027); type: functional, cell-based;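 note: luciferase reporter driven by Pax8 target thyroperoxidase promoter measured by SteadyGlo luminescence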
[21] = non-specific 3'UTR reporter inhibition in Clone20-Shn3RL – cell-based, Renilla luciferase, cherry-picked, counter-screen for Shn3 inhibitor project, dose response (AID 624133); type: functional
[22] = target: Sphingosine 1-phosphate receptor 1 (Homo sapiens, UniProt P21453); type: functional;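 note: Tango beta-arrestin reporter U2OS cells stimulated with S1P near its EC80; inhibitor potency meaning antagonism of receptor activation by the natural agonist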
Protein RecA = target: T2, Protein RecA (Mycobacterium tuberculosis, UniProt P9WHJ3); test: Fluorescence Cell-Free Homogeneous Dose Retest to Identify Inhibitors of RecA-Intein Splicing Activity. [Related pubchem assays (depositor defined):AID2097, AID2223, AID489010, AID492950]; type: functional
T2 sequence (P9WHJ3 whole entry): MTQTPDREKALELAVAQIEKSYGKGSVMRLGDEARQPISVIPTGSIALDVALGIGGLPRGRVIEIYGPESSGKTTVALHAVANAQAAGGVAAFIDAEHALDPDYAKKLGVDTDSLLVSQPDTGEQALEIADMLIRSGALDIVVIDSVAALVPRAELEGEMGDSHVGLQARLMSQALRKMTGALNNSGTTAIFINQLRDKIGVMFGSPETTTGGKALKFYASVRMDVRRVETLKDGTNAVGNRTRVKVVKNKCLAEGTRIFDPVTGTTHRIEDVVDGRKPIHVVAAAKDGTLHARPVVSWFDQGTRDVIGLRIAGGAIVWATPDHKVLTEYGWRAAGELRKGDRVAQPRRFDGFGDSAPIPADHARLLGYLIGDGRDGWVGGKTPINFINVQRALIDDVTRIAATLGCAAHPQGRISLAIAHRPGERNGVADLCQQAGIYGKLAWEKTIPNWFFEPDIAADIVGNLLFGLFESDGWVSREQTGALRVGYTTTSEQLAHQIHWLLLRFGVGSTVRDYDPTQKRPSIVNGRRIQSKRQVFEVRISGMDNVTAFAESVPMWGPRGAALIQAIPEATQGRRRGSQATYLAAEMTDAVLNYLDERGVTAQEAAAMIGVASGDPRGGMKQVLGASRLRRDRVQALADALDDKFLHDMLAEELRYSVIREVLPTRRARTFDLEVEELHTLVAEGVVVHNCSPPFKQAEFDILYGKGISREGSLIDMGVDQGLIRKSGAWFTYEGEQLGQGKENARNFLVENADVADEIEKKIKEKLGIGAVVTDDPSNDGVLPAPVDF

[23] = target: T3, Replicative DNA helicase DnaB (Mycobacterium tuberculosis, UniProt P9WMR3); test: DnaB intein splicing inhibitors, dose response, biochemical, cell-free fluorescence (AID 449749); type: functional
T3 sequence (P9WMR3 whole entry): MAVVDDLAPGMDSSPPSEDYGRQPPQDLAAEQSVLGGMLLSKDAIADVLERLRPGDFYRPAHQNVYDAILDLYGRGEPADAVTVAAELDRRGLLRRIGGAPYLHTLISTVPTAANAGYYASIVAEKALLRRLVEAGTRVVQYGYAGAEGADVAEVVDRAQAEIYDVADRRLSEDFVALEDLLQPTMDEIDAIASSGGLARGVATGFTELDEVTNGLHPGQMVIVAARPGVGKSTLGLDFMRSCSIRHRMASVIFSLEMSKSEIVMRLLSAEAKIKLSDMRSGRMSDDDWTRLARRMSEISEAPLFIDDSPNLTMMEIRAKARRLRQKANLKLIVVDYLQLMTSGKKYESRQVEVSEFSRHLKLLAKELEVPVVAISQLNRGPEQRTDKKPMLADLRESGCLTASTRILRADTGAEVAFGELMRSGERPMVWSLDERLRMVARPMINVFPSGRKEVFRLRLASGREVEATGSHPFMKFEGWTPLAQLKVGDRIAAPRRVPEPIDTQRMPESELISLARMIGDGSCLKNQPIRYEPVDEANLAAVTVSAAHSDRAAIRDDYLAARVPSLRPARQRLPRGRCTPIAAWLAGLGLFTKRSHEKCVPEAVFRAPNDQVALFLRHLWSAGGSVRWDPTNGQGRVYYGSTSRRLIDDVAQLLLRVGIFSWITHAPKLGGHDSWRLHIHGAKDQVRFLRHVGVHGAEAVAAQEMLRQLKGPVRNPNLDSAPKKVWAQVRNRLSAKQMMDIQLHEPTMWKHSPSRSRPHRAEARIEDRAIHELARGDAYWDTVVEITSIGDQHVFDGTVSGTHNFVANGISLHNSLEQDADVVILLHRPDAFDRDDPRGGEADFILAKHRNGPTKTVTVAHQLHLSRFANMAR

[24] = Fluorescence-based cell-based high throughput dose response assay for inhibitors of the interaction of nucleotide-binding oligomerization domain containing 2 (NOD2) and the receptor-interacting serine-threonine kinase 2 (RIPK2).; type: functional; details: Homo sapiens
[25] = intracellular Trypanosoma cruzi inhibitors in host cells – cell-based, plate reader, cherry-pick samples, set 3, dose response (AID 651818); type: functional;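 note: compounds incubated with infected cells for about four days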
[26] = target: Protein disulfide-isomerase (Homo sapiens, UniProt P07237); test: inhibition of PDI-driven insulin aggregation – biochemical, turbidity, absorbance, cherry-picked samples, dose response (AID 602350); type: functional
[27] = SAR analysis of small molecule inhibitors of Apaf-1 using a LZ-Caspase-9/Caspase-3 Fluorescent Selectivity assay - Set 2.; type: functional; details: read-out: IC50_Mean
[28] = target: T4, Apoptotic protease-activating factor 1 (Homo sapiens, UniProt O14727); test: SAR analysis of small molecule Inhibitors of Apaf-1 in a Fluorescent assay - set 2.; type: functional; details: read-out: IC50_Mean
T4 sequence (O14727 whole entry): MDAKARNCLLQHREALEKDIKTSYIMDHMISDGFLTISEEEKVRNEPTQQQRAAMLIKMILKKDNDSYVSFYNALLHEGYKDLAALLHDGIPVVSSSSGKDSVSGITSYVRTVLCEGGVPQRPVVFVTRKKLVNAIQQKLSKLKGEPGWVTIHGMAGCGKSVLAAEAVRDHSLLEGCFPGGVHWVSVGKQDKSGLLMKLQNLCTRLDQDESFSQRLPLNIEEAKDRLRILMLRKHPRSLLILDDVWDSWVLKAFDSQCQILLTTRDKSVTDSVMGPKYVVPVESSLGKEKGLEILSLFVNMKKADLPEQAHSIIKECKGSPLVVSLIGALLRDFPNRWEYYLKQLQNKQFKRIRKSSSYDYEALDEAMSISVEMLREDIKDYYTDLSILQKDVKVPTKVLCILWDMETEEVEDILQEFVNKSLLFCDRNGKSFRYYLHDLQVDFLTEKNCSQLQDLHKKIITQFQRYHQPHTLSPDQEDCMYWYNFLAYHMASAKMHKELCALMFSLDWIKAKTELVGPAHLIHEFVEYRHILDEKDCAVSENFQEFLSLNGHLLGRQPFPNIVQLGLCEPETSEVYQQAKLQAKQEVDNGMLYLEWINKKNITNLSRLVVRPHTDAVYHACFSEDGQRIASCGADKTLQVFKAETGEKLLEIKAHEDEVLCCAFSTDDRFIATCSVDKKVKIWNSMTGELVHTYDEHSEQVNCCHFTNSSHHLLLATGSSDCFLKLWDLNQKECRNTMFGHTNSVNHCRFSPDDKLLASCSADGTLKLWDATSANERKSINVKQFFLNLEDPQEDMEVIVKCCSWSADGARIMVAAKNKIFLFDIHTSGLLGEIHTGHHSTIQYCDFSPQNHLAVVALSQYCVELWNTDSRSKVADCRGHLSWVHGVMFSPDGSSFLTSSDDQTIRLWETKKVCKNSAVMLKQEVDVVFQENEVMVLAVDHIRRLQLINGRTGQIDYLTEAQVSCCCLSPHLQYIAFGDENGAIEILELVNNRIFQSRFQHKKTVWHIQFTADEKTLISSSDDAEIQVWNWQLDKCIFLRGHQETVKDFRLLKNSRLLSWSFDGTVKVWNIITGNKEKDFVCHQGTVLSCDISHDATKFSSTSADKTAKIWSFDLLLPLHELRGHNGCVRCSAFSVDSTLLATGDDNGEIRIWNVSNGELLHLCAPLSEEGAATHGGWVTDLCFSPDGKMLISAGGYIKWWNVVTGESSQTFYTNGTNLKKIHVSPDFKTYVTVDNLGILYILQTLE

[29] = target: T4, Apoptotic protease-activating factor 1; test: SAR analysis of small molecule Activators of Apaf-1 in a Fluorescent assay - set 2.; type: functional; details: read-out: EC50_Mean
[30] = SAR analysis of small molecule activators of Apaf-1 using a LZ-Caspase-9/Caspase-3 Fluorescent Selectivity assay - Set 2.; type: functional; details: read-out: EC50_Mean
Aurora kinase A = Aurora kinase A (Homo sapiens, UniProt O14965); type: functional;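 note: value from the Navigating the Kinome kinase panel profiling, panel entry STK6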
Aurora kinase B = Aurora kinase B (Homo sapiens, UniProt Q96GD4); type: functional
[31] = target: ALK tyrosine kinase receptor (Homo sapiens, UniProt Q9UM73); type: functional;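 note: ALK tested as one member of a kinase panel screen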
[32] = target: Cell division cycle 7-related protein kinase (Homo sapiens, UniProt O00311); type: functional;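 note: value obtained from a kinome-wide kinase panel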

Chain of Vascular endothelial growth factor receptor 2 (P35968 whole entry): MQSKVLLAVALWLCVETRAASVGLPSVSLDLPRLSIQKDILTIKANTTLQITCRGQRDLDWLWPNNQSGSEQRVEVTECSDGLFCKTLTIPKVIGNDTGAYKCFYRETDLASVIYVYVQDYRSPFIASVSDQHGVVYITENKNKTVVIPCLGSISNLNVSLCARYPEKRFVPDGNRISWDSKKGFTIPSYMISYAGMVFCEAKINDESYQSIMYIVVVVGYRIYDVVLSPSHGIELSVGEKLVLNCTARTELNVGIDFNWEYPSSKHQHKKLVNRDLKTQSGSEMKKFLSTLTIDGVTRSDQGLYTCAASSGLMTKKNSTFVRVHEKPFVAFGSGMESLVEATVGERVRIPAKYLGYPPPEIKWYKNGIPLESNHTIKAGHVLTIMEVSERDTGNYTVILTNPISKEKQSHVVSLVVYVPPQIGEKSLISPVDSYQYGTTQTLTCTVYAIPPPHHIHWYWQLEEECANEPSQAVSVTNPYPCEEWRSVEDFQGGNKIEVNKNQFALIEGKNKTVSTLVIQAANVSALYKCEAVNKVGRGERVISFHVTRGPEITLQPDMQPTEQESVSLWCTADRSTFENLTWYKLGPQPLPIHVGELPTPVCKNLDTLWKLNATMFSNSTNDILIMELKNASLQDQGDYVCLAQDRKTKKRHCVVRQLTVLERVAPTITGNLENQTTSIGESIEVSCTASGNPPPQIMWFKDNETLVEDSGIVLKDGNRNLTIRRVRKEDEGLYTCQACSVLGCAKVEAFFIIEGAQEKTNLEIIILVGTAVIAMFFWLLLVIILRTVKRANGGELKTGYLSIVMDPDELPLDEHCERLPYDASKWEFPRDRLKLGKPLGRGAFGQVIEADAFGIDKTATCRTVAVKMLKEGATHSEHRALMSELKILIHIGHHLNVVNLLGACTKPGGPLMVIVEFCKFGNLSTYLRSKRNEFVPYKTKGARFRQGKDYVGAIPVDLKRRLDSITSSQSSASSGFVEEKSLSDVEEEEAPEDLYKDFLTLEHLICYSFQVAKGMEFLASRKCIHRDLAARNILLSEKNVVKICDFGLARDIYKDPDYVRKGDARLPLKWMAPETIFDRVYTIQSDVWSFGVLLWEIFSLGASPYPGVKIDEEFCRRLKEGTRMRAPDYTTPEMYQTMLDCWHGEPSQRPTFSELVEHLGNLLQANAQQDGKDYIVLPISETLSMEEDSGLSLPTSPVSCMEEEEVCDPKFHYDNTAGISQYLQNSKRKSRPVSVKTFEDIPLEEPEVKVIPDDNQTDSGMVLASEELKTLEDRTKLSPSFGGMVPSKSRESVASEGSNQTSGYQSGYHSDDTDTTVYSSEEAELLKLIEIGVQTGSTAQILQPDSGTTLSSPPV
Chain of Cyclin-dependent kinase 19 (Q9BWU1 whole entry): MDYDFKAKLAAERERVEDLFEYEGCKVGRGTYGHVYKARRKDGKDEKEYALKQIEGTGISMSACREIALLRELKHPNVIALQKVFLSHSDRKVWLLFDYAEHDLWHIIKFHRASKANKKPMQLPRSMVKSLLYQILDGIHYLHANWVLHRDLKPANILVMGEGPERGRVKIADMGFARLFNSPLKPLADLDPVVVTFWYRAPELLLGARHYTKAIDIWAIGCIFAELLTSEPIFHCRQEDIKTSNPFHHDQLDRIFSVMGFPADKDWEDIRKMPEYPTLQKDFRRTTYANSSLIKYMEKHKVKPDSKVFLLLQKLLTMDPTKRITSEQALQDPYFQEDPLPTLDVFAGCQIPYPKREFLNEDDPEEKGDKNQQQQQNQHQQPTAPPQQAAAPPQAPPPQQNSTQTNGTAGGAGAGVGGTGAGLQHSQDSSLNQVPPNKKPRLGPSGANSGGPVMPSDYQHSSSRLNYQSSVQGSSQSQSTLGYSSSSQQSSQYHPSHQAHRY
Chain of Benomyl/methotrexate resistance protein (P28873 whole entry): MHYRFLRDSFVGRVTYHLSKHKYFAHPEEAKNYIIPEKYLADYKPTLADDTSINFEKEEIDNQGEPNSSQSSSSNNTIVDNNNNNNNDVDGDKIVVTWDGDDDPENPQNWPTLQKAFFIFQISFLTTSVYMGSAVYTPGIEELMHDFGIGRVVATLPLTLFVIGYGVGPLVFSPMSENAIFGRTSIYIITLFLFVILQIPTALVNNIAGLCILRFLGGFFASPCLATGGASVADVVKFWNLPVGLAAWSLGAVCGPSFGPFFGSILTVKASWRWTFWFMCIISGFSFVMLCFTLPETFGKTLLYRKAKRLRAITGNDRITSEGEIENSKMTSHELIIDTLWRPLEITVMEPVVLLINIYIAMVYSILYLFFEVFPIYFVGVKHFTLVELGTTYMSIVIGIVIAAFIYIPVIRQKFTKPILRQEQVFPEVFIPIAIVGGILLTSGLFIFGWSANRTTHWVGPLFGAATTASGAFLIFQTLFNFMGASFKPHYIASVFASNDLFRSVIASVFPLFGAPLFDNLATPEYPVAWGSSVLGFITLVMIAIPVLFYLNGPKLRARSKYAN
Chain of Protein disulfide-isomerase (P07237 whole entry): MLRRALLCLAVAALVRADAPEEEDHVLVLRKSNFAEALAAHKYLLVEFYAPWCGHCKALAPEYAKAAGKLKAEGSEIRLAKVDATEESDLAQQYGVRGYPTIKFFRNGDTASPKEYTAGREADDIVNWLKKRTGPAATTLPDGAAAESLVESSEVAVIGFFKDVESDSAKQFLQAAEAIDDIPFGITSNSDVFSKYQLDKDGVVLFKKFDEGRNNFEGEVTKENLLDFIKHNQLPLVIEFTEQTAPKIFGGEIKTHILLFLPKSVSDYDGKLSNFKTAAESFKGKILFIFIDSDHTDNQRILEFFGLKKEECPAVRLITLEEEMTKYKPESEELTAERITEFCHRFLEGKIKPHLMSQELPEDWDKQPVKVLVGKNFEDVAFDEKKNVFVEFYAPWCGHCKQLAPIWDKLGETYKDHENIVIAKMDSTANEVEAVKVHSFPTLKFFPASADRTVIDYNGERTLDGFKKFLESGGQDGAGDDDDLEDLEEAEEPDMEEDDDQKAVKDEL
Chain of Multidrug resistance protein CDR1 (P43071 whole entry, looked up): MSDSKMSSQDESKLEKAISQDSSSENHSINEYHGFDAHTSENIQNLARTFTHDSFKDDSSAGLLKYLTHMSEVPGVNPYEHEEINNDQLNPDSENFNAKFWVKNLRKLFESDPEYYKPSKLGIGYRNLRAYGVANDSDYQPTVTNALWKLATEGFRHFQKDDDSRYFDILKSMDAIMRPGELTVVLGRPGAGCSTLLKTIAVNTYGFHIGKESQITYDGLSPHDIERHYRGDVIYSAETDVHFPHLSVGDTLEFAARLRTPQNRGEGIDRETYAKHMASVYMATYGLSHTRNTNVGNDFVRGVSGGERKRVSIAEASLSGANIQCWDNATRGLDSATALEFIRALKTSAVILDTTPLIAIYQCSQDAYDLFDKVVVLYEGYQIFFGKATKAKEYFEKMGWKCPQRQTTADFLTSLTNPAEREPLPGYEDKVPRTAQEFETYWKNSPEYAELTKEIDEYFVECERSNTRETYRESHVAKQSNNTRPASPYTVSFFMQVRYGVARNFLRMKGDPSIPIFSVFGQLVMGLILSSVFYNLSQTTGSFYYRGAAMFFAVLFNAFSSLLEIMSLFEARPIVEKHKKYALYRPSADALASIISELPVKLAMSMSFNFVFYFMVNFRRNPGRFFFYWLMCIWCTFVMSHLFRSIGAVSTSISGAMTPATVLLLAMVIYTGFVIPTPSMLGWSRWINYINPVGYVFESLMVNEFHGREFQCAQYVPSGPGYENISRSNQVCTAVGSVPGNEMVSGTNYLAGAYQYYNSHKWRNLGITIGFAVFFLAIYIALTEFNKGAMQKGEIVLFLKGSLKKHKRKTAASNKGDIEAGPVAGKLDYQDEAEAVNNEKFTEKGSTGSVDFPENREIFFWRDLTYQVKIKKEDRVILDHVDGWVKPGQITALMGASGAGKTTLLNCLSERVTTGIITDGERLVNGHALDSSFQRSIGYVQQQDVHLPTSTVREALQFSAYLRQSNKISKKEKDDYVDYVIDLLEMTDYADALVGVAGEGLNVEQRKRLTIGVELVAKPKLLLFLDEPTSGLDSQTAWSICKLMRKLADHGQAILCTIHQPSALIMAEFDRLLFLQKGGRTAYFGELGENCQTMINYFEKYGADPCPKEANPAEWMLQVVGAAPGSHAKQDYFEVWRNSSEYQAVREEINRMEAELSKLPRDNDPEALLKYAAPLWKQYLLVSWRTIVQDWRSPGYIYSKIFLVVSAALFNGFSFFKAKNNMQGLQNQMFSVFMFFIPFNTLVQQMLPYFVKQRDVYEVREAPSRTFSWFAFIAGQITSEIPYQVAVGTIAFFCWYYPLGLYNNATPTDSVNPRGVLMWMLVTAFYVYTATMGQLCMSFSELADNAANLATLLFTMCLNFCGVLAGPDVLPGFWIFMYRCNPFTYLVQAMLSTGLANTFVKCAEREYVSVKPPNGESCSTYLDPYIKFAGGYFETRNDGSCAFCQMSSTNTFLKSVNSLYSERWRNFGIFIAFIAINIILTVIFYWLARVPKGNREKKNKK
Chain of Paired box protein Pax-8 (Q06710 whole entry): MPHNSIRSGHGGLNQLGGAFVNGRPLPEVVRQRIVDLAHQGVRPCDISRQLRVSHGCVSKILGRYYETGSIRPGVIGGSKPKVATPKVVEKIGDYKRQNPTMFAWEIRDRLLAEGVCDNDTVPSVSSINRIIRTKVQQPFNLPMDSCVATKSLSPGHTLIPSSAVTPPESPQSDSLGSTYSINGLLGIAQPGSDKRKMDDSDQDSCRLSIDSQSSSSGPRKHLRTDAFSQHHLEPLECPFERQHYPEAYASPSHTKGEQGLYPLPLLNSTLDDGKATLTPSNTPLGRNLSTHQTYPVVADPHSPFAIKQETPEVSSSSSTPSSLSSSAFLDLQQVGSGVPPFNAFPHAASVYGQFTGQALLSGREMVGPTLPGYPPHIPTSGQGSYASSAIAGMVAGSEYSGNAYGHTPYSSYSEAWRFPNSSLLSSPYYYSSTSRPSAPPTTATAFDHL

N#Cc1cnn2c(-c3ccccc3)ccnc12
inactive: Ki [1] > 100 µM | Ki [2] > 100 µM | Ki [3] > 100 µM
active: Ki [4] 10 µM

CC(C)C(=O)N1CCC2(CC1)Oc1ccc(F)cc1C(=O)C21CC(c2ccccc2)=NO1 (configuration not stated)
active: EC50 [5] 23.9 µM | EC50 [6] 12.5 µM

CCOC(=O)c1ccc(NC(=O)Cn2ncc(Cl)c(Cl)c2=O)cc1
inconclusive: EC50 [15] 2.69 µM
active: CC50 [7] 3.21 µM | EC50 [8] 2.06 µM | CC50 [9] 8.45 µM | AC50 [10] 2.32 µM | AC50 [11] 3.72 µM | IC50 [12] 1.47 µM | EC50 [13] 0.582 µM | AC50 [14] 3.69 µM | AC50 [16] 5.4 µM | EC50 [17] 1.96 µM | CC50 [18] 6.68 µM | AC50 [19] 46 µM | CC50 [20] 1.62 µM | AC50 (Paired box protein Pax-8) 6.64 µM | AC50 [21] 12.1 µM | IC50 [22] 9.77 µM | EC50 (Protein RecA) 3.77 µM | AC50 [23] 14.1 µM | IC50 [24] 1.77 µM

C[C@H](CO)N1C[C@H](C)[C@H](CN(C)S(=O)(=O)c2ccc(F)cc2)Oc2ccc(NC(=O)Cc3cn(C)c4ccccc34)cc2C1=O
active: AC50 [25] 5.29 µM | AC50 [26] 19.5 µM

O=C1C(=O)N(Cc2ccc(Cl)c(Cl)c2)c2cc(Cl)ccc21
active: IC50 [27] 43.4 µM | IC50 [28] 53.1 µM

O=C(O)C1CC(c2c(F)cccc2Cl)=NO1 (configuration not stated)
inactive: EC50 [29] > 100 µM | EC50 [30] > 100 µM

CS(=O)(=O)Nc1ccc2c(c1)C(=NO)c1ccccc1-2
active: Ki [2] 0.794 µM | Ki (Aurora kinase A) 0.398 µM | Ki (Aurora kinase B) 0.0398 µM

OCCc1ccc(Nc2ncnc3[nH]cc(-c4ccccc4)c23)cc1
active: Ki [31] 3.98 µM | Ki [32] 0.0794 µM
